Source: ChEMBL document CHEMBL1138703, “Allosteric potentiators of the metabotropic glutamate receptor 2 (mGlu2). Part 2: 4-thiopyridyl acetophenones as non-tetrazole containing mGlu2 receptor potentiators” (Bioorg Med Chem Lett, 2004)

Columns and labels:
[1] = molecular target: T1, Metabotropic glutamate receptor 2 (Homo sapiens, UniProt Q14416); experiment: Binding affinity towards human metabotropic glutamate receptor 2 determined by [35S]GTP gamma S binding assay; format: functional
Target sequence in this assay (Q14416 whole entry): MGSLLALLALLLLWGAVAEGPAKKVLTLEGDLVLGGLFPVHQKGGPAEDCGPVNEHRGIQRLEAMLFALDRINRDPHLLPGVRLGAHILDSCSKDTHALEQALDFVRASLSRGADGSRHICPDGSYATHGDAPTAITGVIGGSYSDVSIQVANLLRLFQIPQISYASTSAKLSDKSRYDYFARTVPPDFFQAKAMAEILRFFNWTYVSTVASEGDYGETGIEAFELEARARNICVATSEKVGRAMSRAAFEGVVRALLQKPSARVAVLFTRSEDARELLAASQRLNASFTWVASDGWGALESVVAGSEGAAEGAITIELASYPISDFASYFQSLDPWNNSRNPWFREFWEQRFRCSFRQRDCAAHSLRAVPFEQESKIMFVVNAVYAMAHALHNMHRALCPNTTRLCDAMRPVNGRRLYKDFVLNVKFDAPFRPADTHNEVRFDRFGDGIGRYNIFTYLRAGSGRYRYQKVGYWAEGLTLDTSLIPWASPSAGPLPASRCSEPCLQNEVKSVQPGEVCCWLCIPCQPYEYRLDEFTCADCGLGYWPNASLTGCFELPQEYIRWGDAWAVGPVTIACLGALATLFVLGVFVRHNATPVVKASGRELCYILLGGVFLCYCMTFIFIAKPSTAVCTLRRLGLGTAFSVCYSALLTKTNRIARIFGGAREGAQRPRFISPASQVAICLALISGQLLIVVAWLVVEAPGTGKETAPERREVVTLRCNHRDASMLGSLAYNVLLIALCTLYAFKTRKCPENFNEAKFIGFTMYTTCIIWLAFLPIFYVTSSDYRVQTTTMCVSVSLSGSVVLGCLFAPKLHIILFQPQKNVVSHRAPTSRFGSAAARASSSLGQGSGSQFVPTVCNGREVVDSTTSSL

[2] = molecular target: T1, Metabotropic glutamate receptor 2; experiment: Potentiation as percent of maximum glutamate response at 1 mM
Target sequence in this assay (Q14416 19-872 limits assumed): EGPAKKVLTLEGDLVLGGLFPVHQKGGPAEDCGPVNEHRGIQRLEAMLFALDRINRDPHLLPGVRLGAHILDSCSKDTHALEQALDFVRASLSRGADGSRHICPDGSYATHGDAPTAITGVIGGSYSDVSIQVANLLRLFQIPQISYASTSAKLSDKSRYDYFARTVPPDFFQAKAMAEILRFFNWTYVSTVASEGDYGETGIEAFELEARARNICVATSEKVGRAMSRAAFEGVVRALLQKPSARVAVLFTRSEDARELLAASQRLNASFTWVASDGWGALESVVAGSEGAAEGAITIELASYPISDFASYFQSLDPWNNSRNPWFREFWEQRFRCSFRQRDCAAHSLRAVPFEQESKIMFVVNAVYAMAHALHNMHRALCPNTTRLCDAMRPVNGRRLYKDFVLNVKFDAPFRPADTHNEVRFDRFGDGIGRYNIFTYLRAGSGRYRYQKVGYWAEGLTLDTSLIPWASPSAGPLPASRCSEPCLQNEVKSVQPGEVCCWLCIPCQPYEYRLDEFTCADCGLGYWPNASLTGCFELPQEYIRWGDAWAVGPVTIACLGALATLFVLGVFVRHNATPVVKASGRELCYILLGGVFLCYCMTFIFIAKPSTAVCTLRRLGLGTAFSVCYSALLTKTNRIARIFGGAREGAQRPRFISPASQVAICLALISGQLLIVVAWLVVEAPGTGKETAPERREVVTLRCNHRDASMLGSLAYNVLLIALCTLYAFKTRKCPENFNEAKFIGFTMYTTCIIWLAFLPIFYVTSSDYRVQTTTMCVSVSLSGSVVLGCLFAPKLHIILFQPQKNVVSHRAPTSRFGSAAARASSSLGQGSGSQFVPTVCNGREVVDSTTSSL

[3] = Ratio of brain to plasma levels was determined upon administration at 20 mpk intraperitoneally after 2 h; format: ADME; settings: rat, brain and plasma, ip, 20 mg/kg
[4] = Bioavailability in rat (dose 2 mg/kg i.v. and 10 mg/kg p.o.); format: ADME, organism-based; settings: in vivo, po
[5] = Total clearance in rat plasma upon administration at 2 mpk iv or 10 mpk po; format: ADME, organism-based; settings: 2 mg/kg
[6] = Compound level in rat brain was determined upon administration at 2 mpk iv or 10 mpk po; format: ADME, organism-based; settings: in vivo, read-out: Concentration in Brain
[7] = molecular target: T1, Metabotropic glutamate receptor 2; experiment: Binding affinity for human metabotropic glutamate receptor 2 in [35S]GTP gamma S binding assay; not active at < 10 uM; format: functional
Target sequence in this assay (Q14416 whole entry): as the sequence (Q14416 whole entry) above

| EC50 [1] [nM] | Potentiation [2] [%] | Kp at 2 h [3] | bioavailability [4] [%] | clearance [5] [mL/min/kg] | concentration [6] [nM] | EC50 [7] | SMILES |
| --- | --- | --- | --- | --- | --- | --- | --- |
| 1500 | 53 |  |  |  |  |  | CC(C)CC(=O)c1ccc(OCCCCOc2ccccc2)c(Br)c1O |
|  |  | 0.03 | 59 | 15 |  |  | Cc1c(OCCCCOc2ccc(-c3nn[nH]n3)cc2)ccc(C(=O)CC(C)C)c1O |
| 1720 | 46 |  |  |  |  |  | Cc1c(OCCCCOc2cccnc2)ccc(C(=O)CC(C)C)c1O |
| 1530 | 21 |  |  |  |  |  | Cc1c(OCCCCSc2ccccn2)ccc(C(=O)CC(C)C)c1O |
|  |  | 0.01 | 63 | 33 |  |  | CCCc1c(OCCCCOc2ccc(-c3nnn[nH]3)cc2)ccc(C(C)=O)c1O |
| 4240 | 18 |  |  |  |  |  | Cc1c(OCCCCOc2ccc(-n3cncn3)cc2)ccc(C(=O)CC(C)C)c1O |
| 578 | 79 | 0.21 |  |  | 340 |  | Cc1c(OCc2ccc(Sc3ccncc3)cc2)ccc(C(=O)CC(C)(C)C)c1O |
|  |  |  |  |  |  | Not Active | Cc1c(OCCCCCSc2ccncc2)ccc(C(=O)CC(C)C)c1O |
| 384 | 18 |  |  |  |  |  | Cc1c(OCCCCOc2cccc(F)c2F)ccc(C(=O)CC(C)C)c1O |
| 575 | 67 |  |  |  |  |  | CC(C)CC(=O)c1ccc(OCCCCOc2cccnc2)c(Br)c1O |
| 676 | 82 |  |  |  |  |  | CC(C)CC(=O)c1ccc(OCCCCSc2ccncc2)c(Br)c1O |
| 3850 | 40 |  |  |  |  |  | Cc1c(OCCCCOc2ccncc2)ccc(C(=O)CC(C)C)c1O |
| 677 | 38 |  |  |  |  |  | Cc1c(OCc2ccccc2Sc2ccncc2)ccc(C(=O)CC(C)C)c1O |
| 1990 | 30 |  |  |  |  |  | Cc1c(OCCCCOc2ccccc2F)ccc(C(=O)CC(C)C)c1O |
| 340 | 33 | 1.1 | 3 | 33 | 400 |  | Cc1c(OCCCCSc2ccncc2)ccc(C(=O)CC(C)C)c1O |
| 819 | 68 | 1.2 |  |  | 330 |  | Cc1c(OCc2cccc(CSc3ccncc3)c2)ccc(C(=O)CC(C)C)c1O |
|  |  | 0.15 | < 1 | 70 | 10 |  | COc1ccccc1Oc1ccc(N(Cc2cccnc2)S(=O)(=O)CC(F)(F)F)cc1 |
| 890 | 58 |  |  |  |  |  | Cc1c(OCc2cccc(Sc3ccncc3)c2)ccc(C(=O)CC(C)C)c1O |
| 4550 | 24 |  |  |  |  |  | Cc1c(OCCCCOc2ccccc2)ccc(C(=O)CC(C)C)c1O |
| 770 | 78 |  |  |  |  |  | Cc1c(OCc2ccc(CSc3ccncc3)cc2)ccc(C(=O)CC(C)C)c1O |
|  |  |  |  |  |  | Not Active | Cc1c(OCCCSc2ccncc2)ccc(C(=O)CC(C)C)c1O |
| 558 | 88 |  | 0 | 75 |  |  | CC(C)CC(=O)c1ccc(OCCCCOc2cccc(F)c2F)c(Br)c1O |
| 1060 | 38 |  |  |  |  |  | Cc1c(OCc2ccc(Sc3ccncc3)cc2)ccc(C(=O)CC(C)C)c1O |
| 3270 | 33 |  |  |  |  |  | Cc1c(OCCCCOc2ccccn2)ccc(C(=O)CC(C)C)c1O |
| 1090 | 26 |  |  |  |  |  | Cc1c(OCCCCSc2cccnc2)ccc(C(=O)CC(C)C)c1O |
